The test system of assay [1] is Nakaseomyces glabratus. The experiment in a line: Antifungal activity against Candida glabrata by broth microdilution assay. In kind it is functional.
The subject of assay [2] is Nakaseomyces glabratus. The experiment in a line: Antifungal activity against Candida glabrata assessed as fungicidal activity by broth microdilution assay. In kind it is functional. Background: Dilution methods test growth across graded concentrations, often in twofold steps.
Assay [3] concerns Nakaseomyces glabratus. The assay is described as follows: Antifungal activity against Candida glabrata assessed as time to kill at 1 ug/ml. The class given is functional.
For assay [4], the system named is Nakaseomyces glabratus. The assay is described as follows: Antifungal activity against Candida glabrata assessed as time to kill at 4 ug/ml. The class given is functional.
Assay [5] concerns Nakaseomyces glabratus. The experiment in a line: Antifungal activity against fluconazole-resistant Candida glabrata isolate 01 by broth microdilution assay. In kind it is functional.
For assay [6], the system named is Nakaseomyces glabratus. The assay is described as follows: Antifungal activity against fluconazole-resistant Candida glabrata isolate 02 by broth microdilution assay. The class given is functional.
The test system of assay [7] is Nakaseomyces glabratus. The assay is described as follows: Antifungal activity against fluconazole-resistant Candida glabrata isolate 03 by broth microdilution assay. The class given is functional.
Assay [8] concerns Nakaseomyces glabratus. The assay is described as follows: Antifungal activity against fluconazole-resistant Candida glabrata isolate 04 by broth microdilution assay. In kind it is functional.
For assay [9], the system named is Nakaseomyces glabratus. The experiment in a line: Antifungal activity against fluconazole-resistant Candida glabrata isolate 05 by broth microdilution assay. In kind it is functional.
Assay [10] concerns Nakaseomyces glabratus. The assay is described as follows: Antifungal activity against fluconazole-resistant Candida glabrata isolate 01 in presence of fluconazole by broth microdilution assay. In kind it is functional.
In assay [11] the test system is Nakaseomyces glabratus. The assay is described as follows: Antifungal activity against fluconazole-resistant Candida glabrata isolate 04 in presence of fluconazole by broth microdilution assay. In kind it is functional.
For assay [12], the system named is Nakaseomyces glabratus. The experiment in a line: Antifungal activity against fluconazole-resistant Candida glabrata isolate 02 in presence of voriconazole by broth microdilution assay.
Assay [13] relates to Nakaseomyces glabratus. The experiment in a line: Antifungal activity against fluconazole-susceptible Candida glabrata isolate 03 in presence of fluconazole by broth microdilution assay.
The test system of assay [14] is Nakaseomyces glabratus. The assay is described as follows: Antifungal activity against fluconazole-resistant Candida glabrata isolate 05 in presence of amphotericin B by broth microdilution assay.

In brackets after ≈: the same amount, converted by molar mass.

As to `C[C@@H]1[C@H](O)[C@@H](C)/C=C/C=C/C=C/C=C/C=C/C=C/C=C/[C@H](O[C@@H]2O[C@H](C)[C@@H](O)[C@H](N)[C@@H]2O)C[C@@H]2O[C@](O)(C[C@@H](O)C[C@@H](O)[C@H](O)CC[C@@H](O)C[C@@H](O)CC(=O)O[C@H]1C)C[C@H](O)[C@H]2C(=O)O` [AMPHOTERICIN B], in the assay on Nakaseomyces glabratus [1], the MIC50 (commonly an inhibitory concentration at the 50% level, which refers to growth in some studies and to a panel of isolates in others) turned out to be 0.5 µg/mL (≈ 0.541 µM); the MIC90 (usually an inhibitory concentration at the 90% level, which refers to growth in some studies and to a panel of isolates in others) is 1 µg/mL (≈ 1.08 µM). Moreover, the MFC (in general, the lowest tested concentration that kills the fungus rather than only halting it) in the assay with Nakaseomyces glabratus [2] turned out to be 1 µg/mL.
In the assay on Nakaseomyces glabratus [1], `CC[C@H](C)C[C@H](C)CCCCCCCCC(=O)N[C@H]1C[C@@H](O)[C@@H](NCCN)NC(=O)[C@@H]2[C@@H](O)CCN2C(=O)[C@H]([C@H](O)CCN)NC(=O)[C@H]([C@H](O)[C@@H](O)c2ccc(O)cc2)NC(=O)[C@@H]2C[C@@H](O)CN2C(=O)[C@H]([C@@H](C)O)NC1=O` [CASPOFUNGIN] yielded an MIC50 of 0.5 µg/mL (≈ 0.457 µM). In the assay with Nakaseomyces glabratus [1], this compound gave an MIC90 of 2 µg/mL (≈ 1.83 µM). For the same compound, the MFC in the assay on Nakaseomyces glabratus [2] is 4 µg/mL. The Time is 4 h in the assay with Nakaseomyces glabratus [3] and 2 h with Nakaseomyces glabratus [4]. Moreover, the minimal inhibitory concentration (MIC) (commonly the smallest concentration in the dilution series that meets the test's criterion for growth inhibition) in the assay on Nakaseomyces glabratus [5] is 0.5 µg/mL (≈ 0.457 µM); against Nakaseomyces glabratus [6], 0.25 µg/mL (≈ 0.229 µM); against Nakaseomyces glabratus [7] it was 0.5 µg/mL (≈ 0.457 µM); against Nakaseomyces glabratus [8], 0.5 µg/mL (≈ 0.457 µM); in the assay on Nakaseomyces glabratus [9] it was 0.25 µg/mL (≈ 0.229 µM). Further, the “fractional inhibitory concentration index (FICI)” value in the assay with Nakaseomyces glabratus [10] is given as under 0.5; with Nakaseomyces glabratus [11], 0.5625; with Nakaseomyces glabratus [12], 0.56; in the assay on Nakaseomyces glabratus [13], 0.185; in the assay on Nakaseomyces glabratus [14], 1.06.
`OC(Cn1cncn1)(Cn1cncn1)c1ccc(F)cc1F` [FLUCONAZOLE]: the MIC50 in the assay on Nakaseomyces glabratus [1] was 4 µg/mL (≈ 13.1 µM). The same compound returned an MIC90 in the assay with Nakaseomyces glabratus [1] of 32 µg/mL (≈ 104 µM). Further, in the assay on Nakaseomyces glabratus [2], the MFC is over 128 µg/mL. The minimum inhibitory concentration (MIC) against Nakaseomyces glabratus [5] was 128 µg/mL (≈ 418 µM); against Nakaseomyces glabratus [6], 64 µg/mL (≈ 209 µM); against Nakaseomyces glabratus [7], 2 µg/mL (≈ 6.53 µM); with Nakaseomyces glabratus [8], 32 µg/mL (≈ 104 µM); in the assay with Nakaseomyces glabratus [9], 1 µg/mL (≈ 3.27 µM).
Regarding `C[C@@H](c1ncncc1F)[C@](O)(Cn1cncn1)c1ccc(F)cc1F` [VORICONAZOLE], in the assay on Nakaseomyces glabratus [1], the MIC50 turned out to be 0.125 µg/mL (≈ 0.358 µM) and the MIC90 is 1 µg/mL (≈ 2.86 µM). In the assay on Nakaseomyces glabratus [2], the MFC was over 32 µg/mL.

Values taken from ChEMBL document CHEMBL1212746, “Assessment of the in vitro kinetic activity of caspofungin against Candida glabrata” (2010).
